Among the test systems are COLO 205 colon; HCC-2998 colon; NCI-H460 lung; RPMI-8226 leukemia; SNB-75 CNS; UACC-62 melanoma; EKVX NSCLC; KM12 colon; SK-MEL-5 melanoma; M14 melanoma.
Assay in all cases: growth of human tumour cells (NCI), 48 h

SMILES strings stand for the structures.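 Each compound was tested at five concentrations against cells in 96-well plates for 48 hours. Abbreviation: GI50, concentration required for 50% inhibition of growth. The concentration for full growth arrest is given as TGI.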

This is an account of results in PubChem BioAssay (NCI).

As for `O=c1[nH]nc2ccccc2c1Cc1ccccc1`, the TGI in the experiment with COLO 205 colon, with HCC-2998 colon, in the experiment on NCI-H460 lung, in the experiment with RPMI-8226 leukemia, in the experiment with SNB-75 CNS and with UACC-62 melanoma was more than 100 µM throughout. Besides, the TGI in the experiment with EKVX NSCLC, in the experiment on KM12 colon, with SK-MEL-5 melanoma and with M14 melanoma was more than 100 µM throughout.

As for `COc1ccc2c(=O)cc(-c3ccncc3)oc2c1OC`, the TGI in the experiment with COLO 205 colon is 30.8 µM; in the experiment on HCC-2998 colon, 48.4 µM; in the experiment on NCI-H460 lung, 72.8 µM; with RPMI-8226 leukemia, more than 100 µM; in the experiment on SNB-75 CNS, 41 µM; in the experiment on UACC-62 melanoma, 32.3 µM. The TGI is more than 100 µM with EKVX NSCLC, 96.2 µM in the experiment with KM12 colon, 56.8 µM in the experiment on SK-MEL-5 melanoma and 39 µM with M14 melanoma.

As for `CCCCC[C@H]1C/C=C2/C(=O)C=C[C@@H]2C/C=C\CCCC(=O)O[C@@H](CCCCC)C/C=C2/C(=O)C=C[C@@H]2C/C=C\CCCC(=O)O1`, the GI50 in the experiment on COLO 205 colon was 0.25 µM; in the experiment on HCC-2998 colon, 0.422 µM; in the experiment with NCI-H460 lung, 0.606 µM; in the experiment with RPMI-8226 leukemia, 0.098 µM; with SNB-75 CNS it was 0.552 µM; in the experiment with UACC-62 melanoma it was 0.253 µM. The GI50 with EKVX NSCLC is 0.373 µM; in the experiment with KM12 colon, 0.382 µM; in the experiment with SK-MEL-5 melanoma it was 0.414 µM; with M14 melanoma, 0.273 µM. For the same compound, the TGI with COLO 205 colon turned out to be 0.671 µM; with HCC-2998 colon it was 0.816 µM; in the experiment on NCI-H460 lung it was 1.48 µM; in the experiment on RPMI-8226 leukemia it was 0.599 µM; with SNB-75 CNS, 2.4 µM; in the experiment with UACC-62 melanoma, 0.783 µM. Besides, the TGI came to 1.03 µM in the experiment with EKVX NSCLC, 0.786 µM in the experiment with KM12 colon, 0.791 µM in the experiment on SK-MEL-5 melanoma and 1.01 µM with M14 melanoma.

On to `COc1cccc2c1ccc1nc3cccc(C(=O)N[C@H](C)CN(C)C)c3nc12`, for which the GI50 was 0.0646 µM in the experiment on COLO 205 colon; 0.108 µM with HCC-2998 colon; 0.0354 µM with NCI-H460 lung; 0.0918 µM in the experiment with RPMI-8226 leukemia; 0.205 µM in the experiment with SNB-75 CNS; 0.0447 µM with UACC-62 melanoma. Besides, the GI50 in the experiment with EKVX NSCLC was 0.141 µM; with KM12 colon it was 0.0724 µM; with SK-MEL-5 melanoma, 0.125 µM; in the experiment with M14 melanoma it was 0.138 µM. In addition, the TGI in the experiment on COLO 205 colon was 0.282 µM; in the experiment with HCC-2998 colon, 0.298 µM; in the experiment on NCI-H460 lung, 0.221 µM; in the experiment on RPMI-8226 leukemia, 0.647 µM; with SNB-75 CNS, 1.16 µM; in the experiment with UACC-62 melanoma it was 0.198 µM. For the same compound, the TGI in the experiment with EKVX NSCLC turned out to be 3.16 µM; in the experiment with KM12 colon it was 2.33 µM; in the experiment on SK-MEL-5 melanoma it was 0.342 µM; in the experiment with M14 melanoma it was 0.339 µM.

Regarding `Cc1cc(NCCN(C(C)C)C(C)C)nc(/N=C(\N)Nc2ccc(Cl)c(C(F)(F)F)c2)n1`, the GI50 was 0.164 µM in the experiment on COLO 205 colon; 0.214 µM with HCC-2998 colon; 0.463 µM in the experiment on NCI-H460 lung; 0.22 µM with RPMI-8226 leukemia; 0.449 µM with SNB-75 CNS; 0.198 µM in the experiment with UACC-62 melanoma. Also, the GI50 in the experiment on EKVX NSCLC was 1.48 µM; with KM12 colon it was 0.674 µM; with SK-MEL-5 melanoma, 0.195 µM; with M14 melanoma, 0.181 µM. Also, the TGI in the experiment with COLO 205 colon worked out at 0.305 µM; in the experiment on HCC-2998 colon, 0.469 µM; in the experiment on NCI-H460 lung it was 1.62 µM; with RPMI-8226 leukemia, 0.662 µM; in the experiment on SNB-75 CNS it was 1.03 µM; in the experiment with UACC-62 melanoma, 0.417 µM. The TGI is 3.75 µM in the experiment with EKVX NSCLC, 1.79 µM in the experiment with KM12 colon, 0.492 µM in the experiment on SK-MEL-5 melanoma and 0.323 µM with M14 melanoma.

Regarding `CNC(=O)c1cccc2cc(Oc3ccnc4cc(OCC5(N)CC5)c(OC)cc34)ccc12`, the GI50 in the experiment with COLO 205 colon was 8.66 µM; in the experiment with HCC-2998 colon it was 11 µM; in the experiment with NCI-H460 lung, 5.12 µM; in the experiment with RPMI-8226 leukemia, 12.9 µM; in the experiment on SNB-75 CNS, 0.76 µM; in the experiment on UACC-62 melanoma it was 4.03 µM. The GI50 with EKVX NSCLC is 14.6 µM; with KM12 colon, 6.17 µM; in the experiment on SK-MEL-5 melanoma it was 13.4 µM; in the experiment with M14 melanoma, 8.47 µM. The TGI was determined as 23.7 µM in the experiment with COLO 205 colon; 26.2 µM in the experiment with HCC-2998 colon; 18.1 µM with NCI-H460 lung; 39.7 µM with RPMI-8226 leukemia; 15.5 µM with SNB-75 CNS; 15.9 µM in the experiment on UACC-62 melanoma. Further, the TGI was 34.5 µM in the experiment with EKVX NSCLC, 19.7 µM in the experiment on KM12 colon, 26.7 µM in the experiment on SK-MEL-5 melanoma and 24.3 µM in the experiment on M14 melanoma.

With `COc1cc2c3c(n(CCCCN)c(=O)c2cc1OC)-c1cc2c(cc1C3=O)OCO2`, the GI50 was 1.04 µM with COLO 205 colon; 0.659 µM in the experiment on HCC-2998 colon; 0.114 µM in the experiment with NCI-H460 lung; 0.351 µM in the experiment on RPMI-8226 leukemia; 0.778 µM in the experiment on SNB-75 CNS; 0.216 µM in the experiment on UACC-62 melanoma. Also, the GI50 with EKVX NSCLC was 0.744 µM; in the experiment with KM12 colon it was 1.72 µM; in the experiment with SK-MEL-5 melanoma it was 1.6 µM; with M14 melanoma, 1.36 µM. Moreover, the TGI is 6.17 µM with COLO 205 colon; 2.26 µM with HCC-2998 colon; 2.07 µM with NCI-H460 lung; 1.31 µM in the experiment on RPMI-8226 leukemia; 5.5 µM in the experiment with SNB-75 CNS; 1.04 µM in the experiment on UACC-62 melanoma. For the same compound, the TGI was 3.57 µM in the experiment on EKVX NSCLC, 6.32 µM in the experiment with KM12 colon, 6.4 µM in the experiment on SK-MEL-5 melanoma and 6.22 µM in the experiment with M14 melanoma.

For the compound `COC(=O)c1ccccc1OCc1cc(=O)oc2ccc(C)cc12`, the TGI in the experiment with COLO 205 colon is more than 100 µM; in the experiment with HCC-2998 colon, more than 100 µM; in the experiment on NCI-H460 lung, more than 100 µM; in the experiment on RPMI-8226 leukemia, more than 100 µM; in the experiment with SNB-75 CNS it was 45.5 µM; with UACC-62 melanoma it was more than 66.6 µM. The TGI in the experiment with EKVX NSCLC, in the experiment with KM12 colon, in the experiment with SK-MEL-5 melanoma and with M14 melanoma was more than 100 µM each time.
